For test [1], the system named is TK173 cells. Put plainly: Collagen I Western blot in TGFβ1-treated TK173 fibroblasts. The format is cell-based. The following applies: Homo sapiens, Fibroblast, 10 ng/ml TGFβ1 for 5 days, then compound 48 hours, Collagen I immunoblot. How it is done:
(§1) Compound reconstitution. Prior to treatment, each compound was used from a stock solution of a concentration of 10 mg/ml in DMSO. Final concentration of DMSO in cell cultures was kept below 0.1%.
(§2) Cell culture and treatment. The human renal fibroblast cell line TK173 was derived from a normal human kidney (laboratory stock; (G. A. Müller et al., Exp. Nephrol. 1995, 3, 127). Cell line stabilization for research purposes was approved by the Ethics Committee of the Georg-August-University. TK173 cells were cultured in Dulbecco's modified Eagle's medium (DMEM, Gibco, USA) supplemented with 10% fetal bovine serum (FBS, Gibco, Germany) and 1% penicillin-streptomycin (PS, Gibco, USA) at 37° C. in a humidified atmosphere with 5% CO2. Cell line was routinely tested for mycoplasma contamination. To investigate the effect of compounds after profibrotic agent treatment, 3×10^4 TK173 cells were seeded in one well of a 6-well culture plate in normal medium. After 24 hours, the culture medium was removed, and the cells were incubated for a further 24 hours in FBS free culture medium (starvation medium). Then, 10 ng/ml TGFβ1 (R&D Systems, USA) was added to the starvation medium, and the culture medium was changed with fresh TGFβ1 in every alternate day. After 5 days of TGFβ1 treatment, cell culture medium was replaced by starvation medium with compounds at different concentration for following 48 hours of incubation.
Protein Extraction. Total proteins were extracted from the cultured cells by NP40 Cell Lysis Buffer (Invitrogen, USA) containing phosphatase (Sigma-Aldrich, USA) and protease inhibitor (Roche, Switzerland) followed by sonication and centrifugation at 12,000×g for 20 minutes at 4° C. to clear the lysates. The supernatant was collected and measured using Pierce BCA Protein Assay Kit (ThermoFisher Scientific) by PHOmo Microplate Reader (Autobio, China). The samples were stored at −80° C. prior to use.
Immunoblotting. Western blot analysis, 10 μg of extracted proteins were diluted in NuPAGE LDS Samples Buffer (Novex Life technologies, USA) containing 5% 2-Mercaptoethanol (Sigma-Aldrich, Germany), and following denatured for 5 minutes at 95° C. The proteins were resolved by 4-12% NuPAGE SDS-PAGE (Novex Life technologies, USA). Blots were often stripped with Thermo Scientific Restore PLUS Western Blot Stripping Buffer (Thermo Fisher Scientific, Germany) for reprobing. The following antibodies were used for immunoblotting: Collagen I (1:1000; ab233080, Abcam, USA), alpha smooth muscle Actin (1:1000; ab124964, Abcam, USA), GAPDH (1:8000; sc-32233, Santa Cruz, USA). Proteins were detected by LumiGLO chemiluminescent system (Cell Signaling Technology, USA) with appropriate secondary antibodies: anti-mouse HRP (1:2500; Dako, Denmark) and anti-rabbit HRP (1:2500; 7074, Cell Signaling Technology, USA) using ChemiDoc MP Imaging System (Bio-Rad, USA).

Test [2] has as its system TK173 cells. The experiment in a line: ELISA to detect secreted type I collagen (Pro-Collagen I alpha 1) in conditioned media of TGFβ1-treated TK173 fibroblasts. The format is cell-based. The following applies: Homo sapiens, Fibroblast, 10 ng/ml TGFβ1 for 5 days, then compound 48 hours, Pro-Collagen I alpha 1 ELISA of conditioned media, read-out: IC50, concentration where the TGFβ-stimulated collagen secretion is attenuated by 50%. How it is done: as §1, §2
Conditioned media containing the secretome of TK173 fibroblast were harvested after 48 hours of compound treatments. Secretion of pro-Collagen 1 was assessed with Human Pro-Collagen I alpha 1 DuoSet ELISA (R&D Systems, USA). To prepare the ELISA plate, Human Pro-Collagen I α1 Capture Antibody was diluted in ELISA Plate-coating Buffer at 4 μg/ml working concentration. 100 μl of diluted Capture Antibody was added to the 96-well microplates and incubated overnight at room temperature. After three times washing with Wash Buffer, microplates were blocked by adding 300 μl of Reagent Diluent for 1 hour at room temperature. To proceed the ELISA, Human Pro-Collagen I α1 Standards were diluted in Reagent Diluent (range between 31.3 pg/ml-2000 pg/ml) and 100 μl of standards or conditioned mediums were add into designated wells. Microplates were incubated at room temperature for 2 hours. Human Pro-Collagen I α1 Detection Antibody was prepared in Reagent Diluent at 100 ng/ml working concentration and 100 μl of diluted Detection Antibody was applied for 2 hours at room temperature after extensive washing. Then, working solution of Streptavidin-HRP with Reagent Diluent was prepared by diluting 1:40 and added into each well. After 20 minutes at room temperature incubation, microplates were washed and applied with 100 μl of Substrate Solution for 20 minutes followed by Stop Solution after washing. Finally, signals were measured at 450 nm absorbance by PHOmo Microplate Reader (Autobio, China). The amount of pro-collagen 1 antibody fusion was quantified by extrapolating the signal into a linear range of a pro-collagen 1 standard curve. Screening compounds were typically tested in at concentrations between 5 and 200 μg/ml. The IC50 values observed by the dose response curves for each compound (n=4-6, two independent experiments) were obtained by nonlinear regression analysis using Prism 9 software (GraphPad, La Jolla, USA) and represent the concentration where the TGFβ-stimulated collagen secretion is attenuated by 50%.
For orientation: ELISA stands for enzyme-linked immunosorbent assay.

Converted amounts (≈) assume the structure as drawn. Some results are limits rather than exact numbers.

In turn, `CNc1nn2nnnc2c2ncccc12` (single isomer, unassigned) [Compound 27, N-methylpyrido[2,3-d]tetrazolo[1,5-b]pyridazin-6-amine] registered an IC50 in test [1] below 30 µg/mL.

On to `Cc1nn2nnnc2c2ccccc12` [Compound 2, 6-Methyl-tetrazolo[5,1-a]phthalazine], for which, in test [2], the IC50 was 58 µg/mL (≈ 313 µM). `Cc1nnc2c3ccccc3c(C#N)nn12` [Compound 6, 3-Methyl-1,2,4-triazolo[3,4-a]phthalazine-6-carbonitrile]: the IC50 in test [2] was 61 µg/mL (≈ 292 µM); in test [1], below 5 µg/mL. For `Cc1nnc2c3ccccc3c(NCCO)nn12` [Compound 7, 2-[(3-methyl-1,2,4-triazolo[3,4-a]phthalazin-6-yl)amino]-ethanol], in test [2], the IC50 came to 32 µg/mL (≈ 132 µM). Consider `COc1cc2cnn3c(C)nnc3c2cc1OC` [Compound 9, 8,9-Dimethoxy-3-methyl-1,2,4-triazolo[3,4-a]phthalazine], for which the IC50 in test [2] is 10 µg/mL (≈ 40.9 µM); in test [1], below 1 µg/mL.

On to `FC(F)(F)c1nnc2c3ccccc3cnn12` [Compound 10, 3-Trifluoromethyl-1,2,4-Triazolo[3,4-a]phthalazine], for which, in test [2], the IC50 was found to be 93 µg/mL (≈ 390 µM). The same measure, in the same setting: the result for `OCc1nnc2c3ccccc3cnn12` [Compound 13, 1,2,4-Triazolo[3,4-a]phthalazin-3-yl-methanol] reads 87 µg/mL (≈ 435 µM).

Take `CCc1nnc2c3ccccc3cnn12` [Compound 14, 3-Ethyl-1,2,4-triazolo[3,4-a]phthalazine]: the IC50 in test [1] is below 30 µg/mL. Turning to `c1ccc2c(c1)cnn1cnnc21` [Compound 15, 1,2,4-Triazolo[3,4-a]phthalazine], the IC50 in test [2] is 105 µg/mL (≈ 617 µM); in test [1], below 40 µg/mL. The corresponding values for `c1cc2c(cnn3nnnc23)s1` [Compound 35, Tetrazolo[1,5-b]thieno[3,2-d]pyridazine] are 30 µg/mL (≈ 169 µM) and below 40 µg/mL. Consider `Cc1nnc2c3cscc3c(Cl)nn12` [Compound 38, 6-chloro-3-methylthieno[3,4-d][1,2,4]triazolo[4,3-b]pyridazine], for which, in test [2], the IC50 is below 80 µg/mL. Same read-out and setting: under `Cc1nnc2c3cscc3cnn12` [Compound 39, 3-methylthieno[3,4-d][1,2,4]triazolo[4,3-b]pyridazine] stands below 80 µg/mL; under `c1nn2nnnc2c2cscc12` [Compound 41, Tetrazolo[1,5-b]thieno[3,4-d]pyridazine], below 60 µg/mL. Regarding `Cc1nnc2c3c(Cl)cccc3cnn12` [Compound 45, 10-chloro-3-methyl-[1,2,4]triazolo[3,4-a]phthalazine], in test [2], the IC50 was found to be 20 µg/mL (≈ 91.5 µM). On the same count and under the same terms, the result for `Clc1cccc2cnn3nnnc3c12` [Compound 47a, 10-chlorotetrazolo[5,1-a]phthalazine] reads below 5 µg/mL. On to `Cc1nnc2c3cc(Cl)ccc3cnn12` [Compound 49a, 9-chloro-3-methyl-[1,2,4]triazolo[3,4-a]phthalazine], for which the IC50 in test [2] is below 30 µg/mL; in test [1] it was below 50 µg/mL. Take `Cc1nnc2c3ccc(Cl)cc3cnn12` [Compound 49b, 8-chloro-3-methyl-[1,2,4]triazolo[3,4-a]phthalazine]: the IC50 in test [2] was 30 µg/mL (≈ 137 µM). For `Clc1ccc2cnn3nnnc3c2c1` [Compound 51a, 9-chlorotetrazolo[5,1-a]phthalazine], in test [1], the IC50 is at most 40 µg/mL.

Regarding `Cc1nnc2c3cc(Cl)c(Cl)cc3cnn12` [Compound 53, 8,9-Dichloro-3-methyl-[1,2,4]triazolo[3,4-a]phthalazine], the IC50 in test [2] is below 20 µg/mL; in test [1], below 60 µg/mL. The corresponding values for `Clc1cc2cnn3nnnc3c2cc1Cl` [Compound 55, 8,9-Dichlorotetrazolo[5,1-a]phthalazine] are below 10 µg/mL and below 20 µg/mL. In the case of `Fc1cccc2cnn3nnnc3c12` [Compound 59a, 10-Fluorotetrazolo[5,1-a]phthalazine], in test [2], the IC50 is below 20 µg/mL.

`Fc1cccc2c1cnn1nnnc21` [Compound 59b, 7-fluorotetrazolo[5,1-a]phthalazine]: in test [2], the IC50 is below 5 µg/mL. In the case of `Cc1nnc2c3cc(F)ccc3cnn12` [Compound 61a, 9-Fluoro-3-methyl-[1,2,4]triazolo[3,4-a]phthalazine], the IC50 in test [2] was 530 µg/mL (≈ 2620 µM); in test [1], below 60 µg/mL. The corresponding values for `Cc1nnc2c3ccc(F)cc3cnn12` [Compound 61b, 8-fluoro-3-methyl-[1,2,4]triazolo[3,4-a]phthalazine] are below 30 µg/mL and below 80 µg/mL. The corresponding values for `Fc1ccc2cnn3nnnc3c2c1` [Compound 63a, 9-Fluorotetrazolo[5,1-a]phthalazine] are below 30 µg/mL and below 70 µg/mL.

For the compound `Fc1ccc2c(cnn3nnnc23)c1` [Compound 63b, 8-fluorotetrazolo[5,1-a]phthalazine], the IC50 is below 50 µg/mL in test [2] and below 30 µg/mL in test [1]. The corresponding values for `Cc1nnc2c3cc(F)c(F)cc3cnn12` [Compound 65, 8,9-difluoro-3-methyl-[1,2,4]triazolo[3,4-a]phthalazine] are below 50 µg/mL and below 50 µg/mL. For the compound `Fc1cc2cnn3nnnc3c2cc1F` [Compound 67, 8,9-difluorotetrazolo[5,1-a]phthalazine], in test [2], the IC50 is below 3 µg/mL. On to `COc1ccc2cnn3c(C)nnc3c2c1` [Compound 69a, 9-Methoxy-3-methyl-[1,2,4]triazolo[3,4-a]phthalazine], for which the IC50 in test [2] and in test [1] was below 30 µg/mL in each case.

As for `COc1ccc2c(cnn3c(C)nnc23)c1` [Compound 69b, 8-methoxy-3-methyl-[1,2,4]triazolo[3,4-a]phthalazine], the IC50 in test [2] is below 30 µg/mL; in test [1], below 80 µg/mL. The corresponding values for `CC(C)Oc1nn2nnnc2c2c(Cl)cccc12` [Compound 72, 10-Chloro-6-isopropoxytetrazolo[5,1-a]phthalazine] are below 5 µg/mL and below 5 µg/mL.
